Measurements as given in patent EP4119135A1, “METHODS FOR REBALANCING THE INTESTINAL FLORA IN PATIENTS SUFFERING FROM PARKINSON'S DISEASE” (Luxia Scientific, priority 2021, dated 2023).
Where “and” joins values, the source holds several entries; their conditions need not be identical. Equal entries are not always repeated. Entries after “also recorded” stand apart in the source; their conditions may differ.

Tests used:
[1] = test system: Blautia; assay: Spearman correlation between estimated daily nutrient intake (food questionnaire) and relative abundance of the bacterial genus (16S sequencing of faecal samples); conditions: nutrient intake vs relative abundance of Blautia, whole cohort (215 individus)
Text: (§1) Les tests statistiques suivants ont été réalisés : • Corrélations non paramétriques de Spearman entre les apports en nutriments calculés et chacune des cinq bactéries d'intérêt. • Corrélations non paramétriques de Spearman entre les fréquences de consommation des aliments du questionnaire alimentaire et chacune des cinq bactéries d'intérêt. • Régressions ordinales entre les fréquences de consommation des aliments du questionnaire alimentaire et chacune des cinq bactéries d'intérêt.
(§2) Après avoir créé leur compte personnel sur le site internet de la société de Luxia Scientific, les clients peuvent remplir de manière volontaire un questionnaire alimentaire. Ce questionnaire possède neuf sous-groupes de questions, chacun constituant une catégorie d'aliments. À l'intérieur de ces sous-groupes, une liste complète d'aliments est fournie et donne aux personnes la possibilité de choisir la fréquence à laquelle elles ont consommé chaque aliment possible au cours du dernier mois dans une portion spécifiée.
(§3) Un tableau des apports nutritionnels par portion d'aliments présents dans le questionnaire a été ensuite créé. Pour créer ce tableau, la Table de composition alimentaire française Ciqual de l'ANSES du 07/07/2020 (https://ciqual.anses.fr/) a été utilisée.
(§4) L'apport en omégas-3 a été calculé en additionnant les valeurs d'apports en acide alpha-linolénique (18:3; ALA), en acide eïcosapentaénoïque (20:5; EPA) et en acide docosahexaénoïque (22:6; DHA). L'apport en omégas-6 a été calculé en additionnant les valeurs d'apports en acide linoléique (18:2; […]) et en acide arachidonique (20:4; ARA) qui sont les deux présents dans la Table Ciqual.
(§5) À cette étape, on possède d'une part les réponses des utilisateurs volontaires pour répondre au questionnaire alimentaire, et, d'autre part, on possède les apports nutritionnels mensuel pour chaque réponse possible de chaque aliment du questionnaire. Il convient ensuite de calculer la somme de tous les apports pour chaque réponse de l'individu au questionnaire, puis de la diviser par 30 pour obtenir l'apport nutritionnel quotidien moyen estimé pour cet individu.
(§6) On obtient ainsi un document décrivant les apports nutritionnels de 70 nutriments chez 288 individus.
(§7) Ces deux fichiers sont ainsi composés au final des données alimentaires de 288 individus. Au début de l'analyse, ont été supprimées les données de 2 individus qui sont des enfants de moins de 4 ans car à cet âge, leur microbiote est encore trop immature pour être représentatif des effets de l'alimentation sur leurs populations bactériennes. On utilise donc les données alimentaires de 286 individus pour les analyses de ce rapport.
(§8) Les résultats ayant servi à l'analyse du microbiote intestinal ont été générés en suivant le processus d'analyse du Dispositif Médical de Diagnostic In Vitro 1test1. En bref, les échantillons fécaux ont été prélevés avec un tube de collecte contenant un conservant afin de permettre le transport à température non controlée depuis l'utilisateur vers le laboratoire d'analyse (DNA/RNA Shield de Zymo Research). L'ADN a ensuite été extrait et le séquençage de la région v3-v4 ARN16s réalisé par le laboratoire IBBL au Luxembourg sur un séquenceur MiSeq d'Illumina selon le protocol en application (peut-être rajouter une référence publication). […]

[2] = test system: Faecalibacterium; assay: as above; conditions: nutrient intake vs relative abundance of Faecalibacterium, whole cohort (215 individus)
Text: as §1, §2, §3, §4, §5, §6, §7, §8

[3] = test system: Clostridium_XVIII; assay: as above; conditions: nutrient intake vs relative abundance of Clostridium_XVIII, whole cohort (215 individus)
Text: as §1, §2, §3, §4, §5, §6, §7, §8

[4] = test system: microbiote intestinal; assay: Short-term colonic incubations (in vitro faecal fermentation, simplified SHIME) with faecal inocula of Parkinson and healthy donors; assay type: cell-based, humain; conditions: for pH (activité de fermentation): 0-48h
Text: Pour valider l'effet bénéfique des 5 nutriments d'intérêt sur le microbiote intestinal, une étude In Vitro a été réalisée sur des microbiotes reconstitués à partir de selles d'individus sains et de patients souffrant de la maladie de Parkinson. En particulier, l'effet bénéfique de l'apport de ces nutriments a été évalué à travers l'augmentation de la production de butyrate et d'acides gras à chaine courte en général, ainsi que les changements observés au niveau des métabolites.
Trois donneurs sains et deux donneurs atteints de la maladie de Parkinson ont été recrutés. Pour évaluer les effets de chacun des nutriments sur le microbiote intestinal des donneurs susmentionnés, des simulations coliques à court terme ont été effectuées. L'évaluation de chaque nutriment a été basée 1) sur les effets sur la fermentation microbienne globale (pH) et 2) sur l'activité métabolique microbienne (production de AGCC, de lactate et d'un panel d'environ 400 métabolites).
Les approches in vitro pour étudier le tractus gastro-intestinal et les processus microbiens intestinaux offrent une excellente configuration expérimentale pour étudier les processus qui se développent dans le microbiome intestinal humain. Le dépistage des effets de composés sélectionnés sur le microbiote intestinal peut être effectué au moyen d'une fermentation fécale réalisée dans un seul réacteur, ce qui permet d'évaluer la capacité de substrats spécifiques à moduler la composition et l'activité microbiennes intestinales. Ces expériences représentent une simulation simplifiée du Simulateur continu de l'écosystème microbien intestinal humain (SHIME®).
Les matières fécales ont été recueillies auprès de cinq donneurs (deux donneurs atteints de la maladie de Parkinson (PD) et trois donneurs sains (HD)).
Les matières fécales ont été recueillies dans des conteneurs anaérobies et conservées à la température du réfrigérateur jusqu'à un traitement ultérieur. Dans les 48 heures suivant la défécation, des suspensions fécales (15 % (p/v)) ont été préparées dans un tampon phosphate et mélangées dans un rapport 1 : 1 avec un cryoprotecteur optimisé en interne dans une chambre anaérobie. Les suspensions obtenues ont été immédiatement surgelées dans de l'azote liquide puis conservées à -80°C (cryostock). Juste avant l'expérience, les échantillons ont été décongelés et immédiatement ajoutés aux réacteurs, de sorte qu'un seul cycle de congélation-décongélation a été appliqué sur chaque inoculum individuel.
Un test de dépistage à court terme consiste généralement en une incubation colique d'une dose unique d'un composé d'essai dans des conditions représentatives du gros intestin proximal, en utilisant des inoculums bactériens provenant de donneurs sélectionnés comme sources microbiennes. Cinq traitements et une condition de référence (contrôle négatif) ont été testés par donneur. La composition du milieu dans le contrôle et les traitements est exactement la même, mais le contrôle ne contient pas l'ingrédient de test. Le contrôle est inclus pour déterminer les changements de base dans les différents paramètres étudiés (pH, production d'AGCC, lactate et métabolites liés à l'intestin) résultant de la fermentation des nutriments dans le milieu nutritionnel appauvri en glucides qui est introduit avec les ingrédients d'essai dans les réacteurs (voir ci-dessous), pour fournir des nutriments essentiels à la population microbienne. Chaque condition a été testée en une seule répétition chez cinq donneurs.
Un milieu nutritionnel appauvri en glucides (contenant les nutriments basaux du côlon) a été ajouté à chaque réacteur (y compris le contrôle), ainsi que 10 % (v/v) d'un inoculum fécal cryoconservé à 7,5 % (qui a servi de source microbienne) de chaque des cinq donneurs, portant le volume total dans les réacteurs à 70 mL. Des billes porteuses de mucine ont été incluses dans chaque réacteur, pour simuler la couche de mucus du côlon. […]

[5] = healthy individuals, vs control
[6] = two Parkinson patients, vs control

With `CC1=C(/C=C/C(C)=C/C=C/C(C)=C/C=C/C=C(C)/C=C/C=C(C)/C=C/C2=C(C)CCCC2(C)C)C(C)(C)CCC1` [Beta-Carotène, bêta-carotène] the corrélation [1] was 0,14, the corrélation ([1]; listed as bêta-carotène) was “corrélation positive significative au seuil de 5%” and the corrélation [2] was 0,12. For the same compound, the corrélation [3] was 0,11.

`CCCC(=O)O` [butyrate de sodium] was tested, and the production de butyrate ([4]; Parkinson patients, vs control, added 10 mM butyrate taken into account) was “a fortement stimulé la production de butyrate; also recorded: a stimulé la production de butyrate dans la population parkinsonienne”, the “production d'acétate” value [4, 5] was “concentrations d'acétate similaires à celles du contrôle” and the production de propionate [4, 5] was “concentrations de propionate similaires à celles du contrôle”. For the same compound, the production de butyrate ([4]; healthy individuals, vs control (blank)) was “n'a pas stimulé la production de butyrate; also recorded: pas dans la population en bonne santé”, the “pH (activité de fermentation)” value [4, 5] was “baisses de pH les plus légères” and the “production d'acétate” value [4, 6] was “concentrations d'acétate similaires à celles du contrôle”. For the same compound, the production de propionate [4, 6] was “légers effets de stimulation” and the “pH (activité de fermentation)” value [4, 6] was “profils de pH similaires à ceux du contrôle”.

In the case of `CCC=CCC=CCC=CCC=CCC=CCC=CCCC(=O)O` [DHA, acide docosahexaénoïque], the corrélation [3] is reported as 0,11 and 0,10.
